From publication PMC12543283, “TastepepAI: An artificial intelligence platform for taste peptide de novo design” (PLOS Computational Biology, 2025)
Ends that are not written are not given here.

How the values were obtained:
[1] = Electronic tongue analysis (Taste-Sensing System SA 402B); set-up: unit not given here; conditions: reference solution 30 mM KCl + 0.3 mM tartaric acid as baseline, first measurement excluded; for Umami: sensor AAE; for Umami / Bitter / Sweet: detection threshold 0, room temperature; for Umami / Bitter / Sour / Salty: four replicates; for Sour: detection threshold -13, room temperature; for Salty: detection threshold -6, room temperature; for Sweet: measured five times
Experimental: Taste characteristics were analyzed using the electronic tongue system E-tongue (Taste-Sensing System SA 402B, Intelligent Sensor Technology Co. Ltd., Japan). The system was equipped with five specific sensor probes for detecting sourness (CA0), saltiness (CT0), bitterness (C00), sweetness (GL1), and umami (AAE). Samples were tested at concentrations of 0.1 mg/mL and 1.0 mg/mL. Prior to experiments, sensors were activated by immersion in a reference solution (30 mM KCl and 0.3 mM tartaric acid) for 24 h. A 30 min self-diagnostic procedure was performed before each measurement to ensure data accuracy. The reference solution served both as a cleaning solution and standard solution for taste signal calibration. According to the manufacturer’s instructions, using the reference solution as baseline, the detection thresholds were set at −13 for sourness, −6 for saltiness, and 0 for other taste modalities. Two cleaning solutions were employed for electrode maintenance: (1) 30% ethanol solution containing 100 mM HCl for negative charge reference electrodes, and (2) 30% ethanol solution containing 100 mM KCl and 10 mM KOH for positive charge reference electrodes. All taste measurements were performed at room temperature with four replicates, except for sweetness which was measured five times. The first measurement data were excluded from analysis.

[2] = tested on: human bronchial epithelial cells (BEAS-2B)
[3] = tested on: human embryonic kidney cells (HEK293T)
[4] = tested on: human pancreatic ductal epithelial cells (HPNE)
Experimental: The cytotoxicity of 73 synthetic peptides was evaluated using four human cell lines: human pancreatic ductal epithelial cells (HPNE), human embryonic kidney cells (HEK293T), human umbilical vein endothelial cells (HUVEC), and human bronchial epithelial cells (BEAS-2B). When cell density reached 70% confluence, the complete culture medium was replaced with serum-free maintenance medium, and peptides were added at a final concentration of 100 μM for 36 h. Control groups received only serum-free maintenance medium without peptides. Cell proliferation was assessed using the CCK-8 assay kit (Solarbio, CA1210) according to the manufacturer’s instructions.

[5] = tested on: human umbilical vein endothelial cells (HUVEC)

AQDDLP [TaPep20]
Umami ([1]; peptide 0.1 mg/mL): 1.29
Umami ([1]; peptide 1 mg/mL): -4.77
Bitter ([1]; sensor C00, peptide 0.1 mg/mL): 7.24
Bitter ([1]; sensor C00, peptide 1 mg/mL): 3.35
Sour ([1]; sensor CA0, peptide 0.1 mg/mL): -2.48
Sour ([1]; sensor CA0, peptide 1 mg/mL): 11.76
Salty ([1]; sensor CT0, peptide 0.1 mg/mL): -21.79
Salty ([1]; sensor CT0, peptide 1 mg/mL): 6.62
Sweet ([1]; sensor GL1, peptide 0.1 mg/mL): 5.13
Sweet ([1]; sensor GL1, peptide 1 mg/mL): -4.17
Average cell viability, BEAS-2B [2]: 101.76
Cell viability, BEAS-2B, Data1 [2]: 114.06
Cell viability, BEAS-2B, Data2 [2]: 96.91
Cell viability, BEAS-2B, Data3 [2]: 94.32
Average cell viability, HEK293T [3]: 99.56
Cell viability, HEK293T, Data1 [3]: 100.69
Cell viability, HEK293T, Data2 [3]: 99.18
Cell viability, HEK293T, Data3 [3]: 98.80
Average cell viability, HPNE [4]: 110.18
Cell viability, HPNE, Data1 [4]: 113.51
Cell viability, HPNE, Data2 [4]: 117.20
Cell viability, HPNE, Data3 [4]: 99.83
Average cell viability, HUVEC [5]: 100.19
Cell viability, HUVEC, Data1 [5]: 93.96
Cell viability, HUVEC, Data2 [5]: 106.73
Cell viability, HUVEC, Data3 [5]: 99.87

AQKQE [TaPep53]
Umami ([1]; peptide 0.1 mg/mL): 2.86
Umami ([1]; peptide 1 mg/mL): -3.47
Bitter ([1]; sensor C00, peptide 0.1 mg/mL): 7.88
Bitter ([1]; sensor C00, peptide 1 mg/mL): 2.74
Sour ([1]; sensor CA0, peptide 0.1 mg/mL): -6.36
Sour ([1]; sensor CA0, peptide 1 mg/mL): 8.92
Salty ([1]; sensor CT0, peptide 0.1 mg/mL): -19.95
Salty ([1]; sensor CT0, peptide 1 mg/mL): 13.59
Sweet ([1]; sensor GL1, peptide 0.1 mg/mL): 9.02
Sweet ([1]; sensor GL1, peptide 1 mg/mL): -4.92
Average cell viability, BEAS-2B [2]: 99.50
Cell viability, BEAS-2B, Data1 [2]: 92.92
Cell viability, BEAS-2B, Data2 [2]: 110.37
Cell viability, BEAS-2B, Data3 [2]: 95.21
Average cell viability, HEK293T [3]: 96.06
Cell viability, HEK293T, Data1 [3]: 101.55
Cell viability, HEK293T, Data2 [3]: 93.50
Cell viability, HEK293T, Data3 [3]: 93.12
Average cell viability, HPNE [4]: 100.53
Cell viability, HPNE, Data1 [4]: 111.51
Cell viability, HPNE, Data2 [4]: 101.33
Cell viability, HPNE, Data3 [4]: 88.75
Average cell viability, HUVEC [5]: 99.25
Cell viability, HUVEC, Data1 [5]: 90.21
Cell viability, HUVEC, Data2 [5]: 95.96
Cell viability, HUVEC, Data3 [5]: 111.60

AQSSLS [TaPep40]
Umami ([1]; peptide 0.1 mg/mL): 2.37
Umami ([1]; peptide 1 mg/mL): -3.91
Bitter ([1]; sensor C00, peptide 0.1 mg/mL): 7.48
Bitter ([1]; sensor C00, peptide 1 mg/mL): 3.31
Sour ([1]; sensor CA0, peptide 0.1 mg/mL): -5.48
Sour ([1]; sensor CA0, peptide 1 mg/mL): 10.99
Salty ([1]; sensor CT0, peptide 0.1 mg/mL): -19.59
Salty ([1]; sensor CT0, peptide 1 mg/mL): 10.09
Sweet ([1]; sensor GL1, peptide 0.1 mg/mL): 10.64
Sweet ([1]; sensor GL1, peptide 1 mg/mL): -5.29
Average cell viability, BEAS-2B [2]: 101.16
Cell viability, BEAS-2B, Data1 [2]: 116.45
Cell viability, BEAS-2B, Data2 [2]: 94.02
Cell viability, BEAS-2B, Data3 [2]: 93.02
Average cell viability, HEK293T [3]: 100.57
Cell viability, HEK293T, Data1 [3]: 103.15
Cell viability, HEK293T, Data2 [3]: 101.26
Cell viability, HEK293T, Data3 [3]: 97.29
Average cell viability, HPNE [4]: 106.99
Cell viability, HPNE, Data1 [4]: 100.53
Cell viability, HPNE, Data2 [4]: 109.02
Cell viability, HPNE, Data3 [4]: 111.41
Average cell viability, HUVEC [5]: 101.30
Cell viability, HUVEC, Data1 [5]: 102.66
Cell viability, HUVEC, Data2 [5]: 110.88
Cell viability, HUVEC, Data3 [5]: 90.37
